From publication PMC6972920, “Structure-based development of caged dopamine D2/D3 receptor antagonists” (Scientific Reports, 2020)

Assays:
[1] = target: T1, human dopamine receptor subtype D4.4 (Homo sapiens, UniProt P21917); experiment: Radioligand displacement, [3H]spiperone, CHO cell membranes; assay type: binding; details: [3H]spiperone; mean ± SEM of 4-9 experiments; compounds 1, 2, 3: ± SD of two experiments; read-out: Ki value D4.4
T1 sequence (P21917 1-419): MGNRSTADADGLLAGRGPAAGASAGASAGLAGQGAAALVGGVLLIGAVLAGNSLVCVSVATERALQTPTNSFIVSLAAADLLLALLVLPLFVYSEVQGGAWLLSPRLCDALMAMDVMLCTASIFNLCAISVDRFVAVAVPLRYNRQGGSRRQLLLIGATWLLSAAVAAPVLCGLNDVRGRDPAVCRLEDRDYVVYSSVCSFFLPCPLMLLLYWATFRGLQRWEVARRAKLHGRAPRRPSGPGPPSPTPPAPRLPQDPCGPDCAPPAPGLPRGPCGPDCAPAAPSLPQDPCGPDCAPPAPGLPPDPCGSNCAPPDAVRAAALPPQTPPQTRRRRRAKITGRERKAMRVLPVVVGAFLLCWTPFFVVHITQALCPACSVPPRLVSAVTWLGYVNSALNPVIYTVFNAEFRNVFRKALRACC

[2] = target: T2, D2S receptor (HEK293T cells co-transfected with D2S and Gαqi) (Homo sapiens, UniProt P14416); experiment: Photoactivation by direct irradiation of the cellular test system, quinpirole mediated IP accumulation; assay type: cell-based; details: buffer and compound irradiated at 365 nm for 10 or 20 sec
T2 construct: expressed in transfected cells; host or cells: HEK-293T cells, transient co-transfection
T2 sequence (P14416 1-414 isoform P14416-2): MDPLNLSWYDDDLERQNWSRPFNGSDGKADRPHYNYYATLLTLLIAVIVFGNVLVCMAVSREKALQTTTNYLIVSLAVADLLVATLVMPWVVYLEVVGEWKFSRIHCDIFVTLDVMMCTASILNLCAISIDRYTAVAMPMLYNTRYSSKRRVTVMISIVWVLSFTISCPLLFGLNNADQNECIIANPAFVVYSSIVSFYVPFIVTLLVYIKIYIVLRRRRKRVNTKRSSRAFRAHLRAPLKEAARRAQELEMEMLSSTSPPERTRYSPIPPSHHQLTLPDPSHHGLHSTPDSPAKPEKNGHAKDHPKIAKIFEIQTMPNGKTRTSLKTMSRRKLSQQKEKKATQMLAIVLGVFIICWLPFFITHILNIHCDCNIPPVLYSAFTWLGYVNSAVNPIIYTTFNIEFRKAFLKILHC
Source text: […]. Mean curves ± SEM of 4–9 individual curves each done in triplicates. […]. Mean curves from 3–4 experiments each done in duplicate. […]. While 4 (MG307) (green bars) is completely released after 10 sec, the uncaging of 5 (red bars) needs 20 sec. […]. Mean bars ± SEM derived from 3–11 individual experiments each done in quintuplicates. Irradiation with a solution of test compound before addition to the cellular test system. […]. Means ± SEM from 6 experiments in quintuplicates.
[…]. Actually, we observed an onset of a strong inverse agonist effect on quinpirole-induced IP accumulation after irradiation of the nitrobenzyl-caged compound 4 (MG307). […] […]. […] To complement uncaging of the test compounds by irradiation of the test compounds before addition to receptor by a biologically more significant experiment, we investigated whether uncaging can also be accomplished directly in the cellular system. […] In fact, quinpirole-promoted IP accumulation was substantially attenuated after irradiation for 10 or 20 sec. […] […]. […] […].
HEK293T cells were transiently co-transfected with D2S and Gαqi. Solutions of the test compounds were irradiated at λ = 365 nm using the same LED as for the photochemistry experiments (see above) for 2, 5, 10 or 20 sec and the test compound was added to the cell system immediately after illumination. […]. Accumulation of IP was determined as described above. […]. […]

[3] = target: T3, human adrenergic α1A receptor (Homo sapiens, UniProt P35348); experiment: Competition binding, [3H]prazosin, HEK293T membranes; details: ± SD of two experiments
T3 construct: expressed in transfected cells; host or cells: HEK293T cells, transient transfection
T3 sequence (P35348 1-466): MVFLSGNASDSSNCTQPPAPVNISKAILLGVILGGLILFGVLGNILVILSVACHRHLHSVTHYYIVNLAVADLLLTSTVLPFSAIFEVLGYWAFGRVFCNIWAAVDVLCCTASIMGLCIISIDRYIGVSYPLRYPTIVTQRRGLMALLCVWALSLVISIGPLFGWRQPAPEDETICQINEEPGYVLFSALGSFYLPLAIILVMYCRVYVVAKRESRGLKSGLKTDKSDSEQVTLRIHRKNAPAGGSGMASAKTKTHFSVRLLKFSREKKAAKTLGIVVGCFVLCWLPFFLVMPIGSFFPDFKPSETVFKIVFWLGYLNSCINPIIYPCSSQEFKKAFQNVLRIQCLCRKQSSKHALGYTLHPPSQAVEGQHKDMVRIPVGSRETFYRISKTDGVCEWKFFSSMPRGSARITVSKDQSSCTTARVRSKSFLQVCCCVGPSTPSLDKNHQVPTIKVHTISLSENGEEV

[4] = target: T4, human serotonin 5-HT1A receptor (Homo sapiens, UniProt P08908); experiment: Competition binding, [3H]WAY600135, HEK293T membranes; details: ± SD of two experiments
T4 construct: expressed in transfected cells; host or cells: HEK293T cells, transient transfection
T4 sequence (P08908 1-422): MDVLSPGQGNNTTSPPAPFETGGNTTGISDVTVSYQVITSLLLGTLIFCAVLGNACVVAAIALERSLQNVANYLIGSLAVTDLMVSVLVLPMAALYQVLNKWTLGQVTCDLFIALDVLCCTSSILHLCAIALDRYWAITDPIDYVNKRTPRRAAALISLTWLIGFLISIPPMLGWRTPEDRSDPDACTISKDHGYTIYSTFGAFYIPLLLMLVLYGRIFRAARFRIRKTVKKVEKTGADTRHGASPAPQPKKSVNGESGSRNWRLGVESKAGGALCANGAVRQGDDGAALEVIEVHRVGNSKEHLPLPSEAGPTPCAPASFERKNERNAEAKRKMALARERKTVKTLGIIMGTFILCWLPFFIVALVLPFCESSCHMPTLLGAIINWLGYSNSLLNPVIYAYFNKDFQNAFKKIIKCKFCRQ

[5] = target: T5, human adrenergic β2 receptor (Homo sapiens, UniProt P07550); experiment: Competition binding, [3H]CGP12177, HEK293T membranes; details: ± SD of two experiments
T5 construct: expressed in transfected cells; host or cells: HEK293T cells, transient transfection
T5 sequence (P07550 whole entry): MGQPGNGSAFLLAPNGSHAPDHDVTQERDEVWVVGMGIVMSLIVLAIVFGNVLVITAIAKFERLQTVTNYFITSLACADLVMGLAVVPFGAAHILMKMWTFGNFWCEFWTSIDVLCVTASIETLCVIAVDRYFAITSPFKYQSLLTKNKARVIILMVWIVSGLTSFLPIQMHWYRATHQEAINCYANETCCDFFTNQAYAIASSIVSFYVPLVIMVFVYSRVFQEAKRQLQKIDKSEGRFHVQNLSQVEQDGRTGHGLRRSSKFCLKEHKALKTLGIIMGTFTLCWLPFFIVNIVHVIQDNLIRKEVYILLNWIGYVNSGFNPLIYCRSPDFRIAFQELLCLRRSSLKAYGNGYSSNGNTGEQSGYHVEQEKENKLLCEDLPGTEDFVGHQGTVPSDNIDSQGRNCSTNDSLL

[6] = target: T6, human dopamine D1 receptor (Homo sapiens, UniProt P21728); experiment: Competition binding, [3H]SCH23390, HEK293T membranes; details: read-out: Ki value D1
T6 construct: expressed in transfected cells; host or cells: HEK293T cells, transient transfection
T6 sequence (P21728 whole entry): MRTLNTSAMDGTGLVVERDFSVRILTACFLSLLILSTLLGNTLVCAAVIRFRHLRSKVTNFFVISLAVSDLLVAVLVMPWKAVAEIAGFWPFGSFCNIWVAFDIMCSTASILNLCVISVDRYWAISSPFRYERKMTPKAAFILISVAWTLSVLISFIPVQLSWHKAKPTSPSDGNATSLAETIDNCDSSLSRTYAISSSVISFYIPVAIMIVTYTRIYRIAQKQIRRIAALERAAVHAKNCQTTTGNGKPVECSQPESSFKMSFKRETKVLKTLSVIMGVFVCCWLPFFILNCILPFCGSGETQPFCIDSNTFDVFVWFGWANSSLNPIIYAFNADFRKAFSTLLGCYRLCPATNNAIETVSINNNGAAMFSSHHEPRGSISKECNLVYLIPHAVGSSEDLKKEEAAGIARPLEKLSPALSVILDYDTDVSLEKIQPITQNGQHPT

[7] = target: T7, human serotonin 5-HT2A receptor (Homo sapiens, UniProt P28223); experiment: Competition binding, [3H]ketanserin, HEK293T membranes; details: ± SD of two experiments
T7 construct: expressed in transfected cells; host or cells: HEK293T cells, transient transfection
T7 sequence (P28223 whole entry): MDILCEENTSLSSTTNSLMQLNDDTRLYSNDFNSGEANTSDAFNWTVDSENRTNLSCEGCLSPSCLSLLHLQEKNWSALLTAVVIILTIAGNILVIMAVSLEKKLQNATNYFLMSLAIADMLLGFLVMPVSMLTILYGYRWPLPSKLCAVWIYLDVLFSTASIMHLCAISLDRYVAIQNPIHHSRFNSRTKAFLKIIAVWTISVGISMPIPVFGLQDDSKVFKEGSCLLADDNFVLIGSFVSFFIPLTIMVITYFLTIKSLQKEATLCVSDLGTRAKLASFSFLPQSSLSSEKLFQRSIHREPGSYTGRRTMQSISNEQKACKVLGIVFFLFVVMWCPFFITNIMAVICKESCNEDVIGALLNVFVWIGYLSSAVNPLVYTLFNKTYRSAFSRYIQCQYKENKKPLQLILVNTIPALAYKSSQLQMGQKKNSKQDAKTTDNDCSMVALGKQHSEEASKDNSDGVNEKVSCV

[8] = target: T8, human adrenergic α2A receptor (Homo sapiens, UniProt P08913); experiment: Competition binding, [3H]RX821002, HEK293T membranes; details: [3H]RX821002; ± SD of two experiments
T8 construct: expressed in transfected cells; host or cells: HEK293T cells, transient transfection
T8 sequence (P08913 1-465): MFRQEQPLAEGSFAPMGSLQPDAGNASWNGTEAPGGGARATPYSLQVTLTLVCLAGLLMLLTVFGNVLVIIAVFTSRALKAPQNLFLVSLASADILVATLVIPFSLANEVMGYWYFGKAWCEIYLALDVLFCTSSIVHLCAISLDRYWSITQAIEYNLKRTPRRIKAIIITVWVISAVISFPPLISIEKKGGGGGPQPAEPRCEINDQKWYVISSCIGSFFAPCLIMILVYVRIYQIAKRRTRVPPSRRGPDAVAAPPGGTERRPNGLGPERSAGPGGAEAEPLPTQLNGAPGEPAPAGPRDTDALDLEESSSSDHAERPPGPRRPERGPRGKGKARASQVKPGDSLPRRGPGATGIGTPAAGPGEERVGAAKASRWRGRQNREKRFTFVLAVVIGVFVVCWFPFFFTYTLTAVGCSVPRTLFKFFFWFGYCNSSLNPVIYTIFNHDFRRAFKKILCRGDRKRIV

| Structure (SMILES) | Ki [1] [nM] | remaining D2S promoted signalling (IP accumulation) after irradiation in the cellular system [2] | Ki [3] [nM] | Ki [4] [nM] | Ki [5] [nM] | Ki [6] [nM] | Ki [7] [nM] | Ki [8] [nM] |
| --- | --- | --- | --- | --- | --- | --- | --- | --- |
| CCc1ccc(OC)c(C(=O)NC[C@@H]2CCCN2CC)c1OCc1ccccc1[N+](=O)[O-] [compound 4, (S)-3-Ethyl-N-[(1-ethylpyrrolidin-2-yl)methyl]-6-methoxy-2-[(2-nitrobenzyl)oxy]benzamide] | 2800 ± 180 | < 5% | – | – | – | – | – | – |
| CCc1ccc(OC)c(C(=O)NC[C@@H]2CCCN2CC)c1OCc1cc(OC)c(OC)cc1[N+](=O)[O-] [compound 5] | 25000 ± 3300 | about 35% | – | – | – | – | – | – |
| CCc1ccc(OC)c(C(=O)NC[C@@H]2CCCN2CC)c1O [dechloroeticlopride, (S)-3-Ethyl-N-[(1-ethylpyrrolidin-2-yl)methyl]-2-hydroxy-6-methoxybenzamide, reference compound] | – | – | 880 ± 150 | 1800 ± 420 | 8900 ± 3000 | 11000 ± 3600 | 270 ± 28 | 100 ± 36 |
